Tested on: PDE IV
Assay: Inhibition of PDE IV Activity (method of Bauer and Schwabe, adapted to microtiter plates)
Assay type: biochemical

Point of comparison: `CCOc1cc2c(cc1OC)[C@@H]1CCCC[C@@H]1N=C2c1ccc(C(=O)O)cc1.Cl` (racemic) [Compound 17, (+/ -)-cis-6-(4-carboxyphenyl)-8-ethoxy-9-methoxy-1,2,3,4,4a,10b-hexahydrophenanthridine hydrochloride], “-log IC50 (Inhibition of PDE IV Activity)” value 6.79. Against it:
- COC(=O)c1ccc(C2=N[C@H]3CCCC[C@H]3c3cc(OC)c(OC)cc32)cc1 (racemic) [Compound 1, (+/ -)-cis-8,9-dimethoxy-6-[4-(methoxycarbonyl)phenyl]-1,2,3,4,4a,10b-hexahydrophenanthridine] — higher, 7.39
- CCOc1cc2c(cc1OCC)[C@@H]1CCCC[C@@H]1N=C2c1ccc(C(=O)OC)cc1 (racemic) [Compound 2, (+/ -)-cis-8,9-diethoxy-6-[4-(methoxycarbonyl)phenyl]-1,2,3,4,4a,10b-hexahydrophenanthridine] — higher, 8.84
- COC(=O)c1ccc(C2=N[C@H]3CCCC[C@H]3c3cc(OC(F)F)c(OC)cc32)cc1 (racemic) [Compound 3, (+/ -)-cis-9-difluoromethoxy-8-methoxy-6-[4-(methoxycarbonyl)phenyl]-1,2,3,4,4a ,10b-hexahydrophenanthridine] — higher, 7.73
- CCOc1cc2c(cc1OC)C(c1ccc(C(=O)OC)cc1)=N[C@H]1CCCC[C@@H]21 (racemic) [Compound 4, (+/ -)-cis-9-ethoxy-8-methoxy-6-[4-(methoxycarbonyl)phenyl]-1,2,3,4,4a,10b-hexahydrophenanthridine] — higher, 8.73
- CCOc1cc2c(cc1OC)[C@@H]1CCCC[C@@H]1N=C2c1ccc(C(=O)OC)cc1 (racemic) [Compound 5, (+/ -)-cis-8-ethoxy-9-methoxy-6-[4-(methoxycarbonyl)phenyl]-1,2,3,4,4a,10b-hexahydrophenanthridine] — higher, 7.02
- CCOc1cc2c(cc1OCC)[C@@H]1CCCC[C@@H]1N=C2c1cccc(C(=O)OC)c1 (racemic) [Compound 6, (+/-)-cis-8,9-diethoxy-6-[3-(methoxycarbonyl)phenyl]-1,2,3,4,4a ,10b-hexahydrophenanthridine] — higher, 8.14
- CCOc1cc2c(cc1OCC)[C@@H]1CCCC[C@@H]1N=C2c1ccccc1C(=O)OC (racemic) [Compound 7, (+/ -)-cis-8,9-diethoxy-6-[2-(methoxycarbonyl)phenyl]-1,2,3,4,4a,10b-hexahydrophenanthridine] — lower, 6.34
- COC(=O)c1ccc(C2=N[C@H]3CCCC[C@@H]3c3cc(OC)c(OC)cc32)cc1 (racemic) [Compound 8, (+/ -)-trans-8,9-dimethoxy-6-[4-(methoxycarbonyl)phenyl]-1,2,3,4,4a,10b-hexahydrophenanthridine] — lower, 5.92
- COc1cc2c(cc1OC)[C@@H]1CCCC[C@@H]1N=C2c1ccc(C(=O)OCC2CC2)cc1 (racemic) [Compound 13, (+/ -)-cis-8,9-dimethoxy-6-[4-(cyclopropylmethoxycarbonyl)phenyl]-1,2,3,4,4a ,10b-hexahydrophenanthridine] — higher, 7.39
- CCOc1cc2c(cc1OCC)[C@@H]1CCCC[C@@H]1N=C2c1ccc(C(=O)O)cc1.Cl (racemic) [Compound 14, (+/ -)-cis-6-(4-carboxyphenyl)-8,9-diethoxy-1,2,3,4,4a,10b-hexahydrophenanthridine hydrochloride] — higher, 8.27
- COc1cc2c(cc1OC)[C@@H]1CCCC[C@@H]1N=C2c1ccc(C(=O)O)cc1.Cl (racemic) [Compound 15, (+/ -)-cis-6-(4-carboxyphenyl)-8,9-dimethoxy-1,2,3,4,4a,10b-hexahydrophenanthridine hydrochloride] — within 0.2 log units, 6.81
- CCOc1cc2c(cc1OC)C(c1ccc(C(=O)O)cc1)=N[C@H]1CCCC[C@@H]21.Cl (racemic) [Compound 16, (+/ -)-cis-6-(4-carboxyphenyl)-9-ethoxy-8-methoxy-1,2,3,4,4a,10b-hexahydrophenanthridine hydrochloride] — higher, 8.66
- CCOc1cc2c(cc1OCC)[C@@H]1CCCC[C@@H]1N=C2c1cccc(C(=O)O)c1.Cl (racemic) [Compound 18, (+/ -)-cis-6-(3-carboxyphenyl)-8,9-diethoxy-1,2,3,4,4a,10b-hexahydrophenanthridine hydrochloride] — higher, 7.69
- COc1cc2c(cc1OC(F)F)[C@@H]1CCCC[C@@H]1N=C2c1ccc(C(=O)O)cc1.Cl (racemic) [Compound 19, (+/ -)-cis-6-(4-carboxyphenyl)-9-difluoromethoxy-8-methoxy-1,2,3,4,4a,10b-hexahydrophenanthridine hydrochloride] — higher, 7.55
- CNC(=O)c1ccc(C2=N[C@H]3CCCC[C@H]3c3cc(OC)c(OC)cc32)cc1 (racemic) [Compound 20, (+/-)-cis-6-[4-(N-methylaminocarbonyl)phenyl]-8,9-dimethoxy-1,2,3,4,4a ,10b-hexahydrophenanthridine] — lower, 5.18
- CCOc1cc2c(cc1OCC)[C@@H]1CCCC[C@@H]1N=C2c1ccc(C(=O)OC)cc1 (single isomer, unassigned) [Compound 9, (-)-cis-8,9-diethoxy-6-[4-(methoxycarbonyl)phenyl]-1,2,3,4,4a,10b-hexahydrophenanthridine] — higher, 8.52
- CCOc1cc2c(cc1OCC)[C@@H]1CCCC[C@@H]1N=C2c1ccc(C(=O)OC)cc1 (single isomer, unassigned) [Compound 10, (+)-cis-8,9-diethoxy-6-[4-(methoxycarbonyl)phenyl]-1,2,3,4,4a,10b-hexahydrophenanthridine] — higher, 7.48
- COC(=O)c1ccc(C2=N[C@H]3CCCC[C@H]3c3cc(OC)c(OC)cc32)cc1 (single isomer, unassigned) [Compound 11, (-)-cis-8,9-dimethoxy-6-[4-(methoxycarbonyl)phenyl]-1,2,3,4,4a,10b-hexahydrophenanthridine] — higher, 7.52
- COC(=O)c1ccc(C2=N[C@H]3CCCC[C@H]3c3cc(OC)c(OC)cc32)cc1 (single isomer, unassigned) [Compound 12, (+)-cis-8,9-dimethoxy-6-[4-(methoxycarbonyl)phenyl]-1,2,3,4,4a,10b-hexahydrophenanthridine] — lower, 4.95
